The text below walks through data of US9328324B2, “System, method and devices for tissue-based diagnosis” (The Regents of the University of California, priority 2009, dated 2016).

The nature of the data set: Preservation of bioactivity of solubilized tissue constituents under ultrasonic energy exposure. To be noted: 1% w/v in LPM.
`CCCCCCCCCCCCOCCOCCOCCOCCO` [Brij 30, polyethylene glycol dodecyl ether]: the “preservation of bioactivity of solubilized proteins and nucleic acids” value is on record as “complete preservation”.

As for `CCCCCCCCCC[N+](C)(C)CCCS(=O)(=O)[O-]` [DPS, 3-(decyldimethylammonio) propane sulfonate], the “preservation of bioactivity of solubilized proteins and nucleic acids” value is “complete preservation”. To `CCCCCCCCCCCC(=O)N(C)CC(=O)O` [NLS, N-lauroyl sarcosine] belongs “complete preservation”.
